Results published in patent publication US10047105B2, “Gyrase inhibitors” (Merck Sharp & Dohme Corp., priority 2009, dated 2018).
Values after ≈ are worked out from the molar mass of the structure shown.

Tests used:
Format in all cases: cell-based
[1] = system: E. coli 8 ATCC 25922; test: MIC, E. coli 8 (wt); details: E. coli 8 (EC8)
[2] = system: S. aureus ATCC 13709; test: MIC, antibacterial potency, S. aureus
[3] = system: S. pneumoniae ATCC 51916; test: MIC, S. pneumoniae
[4] = S. pneumoniae (Spn52), in µg/mL

Compound | MIC EC8 [1] [µg/mL] | MIC, SA ([2]; S. aureus (SA), in µg/mL) | MIC Spn52 [3, 4] | MIC, SA ([2]; S. aureus) [µg/mL] | MIC Spn52 ([3]; S. pneumoniae) [µg/mL]
CCc1[nH]c2nc(Sc3ccc4c(N5CC[C@@H](N)C5)nc(C(=O)O)nc4c3)nc(N3CC[C@@H](N)C3)c2c1Cl [700,955] | 16 (≈ 28.9 µM) | 8 | >64 | – | –
CCc1[nH]c2nc(Sc3ccc4cc5c([n+]([O-])c4c3)CCOC5)nc(N3CC4C(N)C4C3)c2c1Cl (stereo not shown) [701,084] | 8 (≈ 15.7 µM) | <=0.5 | <=0.5 | – | –
CCc1[nH]c2nc(Sc3cc(=O)n(CC4CC4)c(=O)[nH]3)nc(N3CC(O)C3)c2c1Br [700,416] | – | – | – | ≤ 0.5 | 2 (≈ 4.05 µM)
CCOc1nc(Sc2nc(OC)c3cccnc3n2)nc2[nH]c(CC)c(Cl)c12 [700,339] | – | – | – | > 64 | > 64
CCc1[nH]c2nc(Sc3nc(C(=O)O)cs3)nc(N3CC(O)C3)c2c1Cl [700,340] | – | – | – | > 64 | > 64
CCOC(=O)c1nc2cc(Sc3nc(N4CC(O)C4)c4c(Br)c(CC)[nH]c4n3)cnc2n(C)c1=O [700,475] | – | – | – | > 64 | > 64
Fc1ccc(Oc2nc(Nc3cccnc3)nc3[nH]cc(Br)c23)c(F)c1.O=C(O)C(F)(F)F [700,315] | – | – | – | 16 | 64
CCc1[nH]c2nc(Sc3cnc4nccnc4c3)nc(N3CC[C@@H](C)[C@@H](N)C3)c2c1Cl [700,595] | – | – | – | 8 (≈ 17.6 µM) | 8 (≈ 17.6 µM)
CCOc1nc(Oc2ccc3ccncc3c2)nc2[nH]c(CC)c(Cl)c12.O=C(O)C(F)(F)F [700,691] | – | – | – | > 64 | > 64
CCc1[nH]c2nc(Sc3cnc4c(N)nc(N)nc4c3)nc(N3CC(C(=O)O)C3)c2c1Cl.O=C(O)C(F)(F)F.O=C(O)C(F)(F)F [700,464] | – | – | – | > 64 | > 64
CCc1[nH]c2nc(Cc3cccnc3)nc(Oc3cccnc3)c2c1Cl [700,479] | – | – | – | 4 (≈ 10.9 µM) | 32 (≈ 87.5 µM)
CCc1[nH]c2nc(Sc3nc(C(=O)O)cs3)nc(N3CCOCC3)c2c1Cl.O=C(O)C(F)(F)F [700,396] | – | – | – | > 64 | > 64
CCc1[nH]c2nc(Sc3ccc4cc(C(=O)O)cnc4c3)nc(N3CC[C@@H](N)C3)c2c1Cl [700,705] | – | – | – | > 64 | > 64
CCc1[nH]c2nc(Oc3ccc4nccnc4c3)nc(Oc3ccc4nccnc4c3)c2c1Cl [700,613] | – | – | – | ≤ 0.5 | 4 (≈ 8.51 µM)
CCc1[nH]c2nc(Sc3nc(C(=O)O)cs3)nc(N3CCCC(CO)C3)c2c1Cl.O=C(O)C(F)(F)F (stereo not shown) [700,408] | – | – | – | > 64 | > 64
CCc1[nH]c2nc(Nc3cnc4c(c3)nnn4C(C)C)nc(OC)c2c1Br.O=C(O)C(F)(F)F [700,535] | – | – | – | ≤ 0.5 | 4
CCOc1nc(Sc2ccc(N3CCC(O)CC3)nn2)nc2[nH]c(CC)c(Cl)c12 [700,327] | – | – | – | 32 (≈ 73.6 µM) | 64 (≈ 147 µM)
CCc1[nH]c2nc(Sc3cnc4nccnc4c3)nc(N3CC[C@H](NC)C3)c2c1Cl.O=C(O)C(F)(F)F [700,549] | – | – | – | 4 | 4
CCOc1nc(Nc2ccc3cccnc3c2)nc2[nH]c(CC)c(Br)c12.O=C(O)C(F)(F)F [700,388] | – | – | – | 4 | 16
CCc1[nH]c2nc(Sc3cnc4nccnc4c3)nc(N3CCC(NC)C3)c2c1Cl.O=C(O)C(F)(F)F (stereo not shown) [700,567] | – | – | – | 7 | 4
CCc1[nH]c2nc(Sc3nc(-c4nnc(C)o4)cs3)nc(N3CC(O)C3)c2c1Cl.Cl.Cl.Cl [700,387] | – | – | – | 16 | > 64
CCc1[nH]c2nc(Sc3cnc4nccnc4c3)nc(N3CC(NC(=N)N)C3)c2c1Cl.O=C(O)C(F)(F)F [700,503] | – | – | – | 16 | > 64
CCc1[nH]c2nc(Sc3cnc4nccnc4c3)nc(N3CC(Oc4ccc(C(F)(F)F)cc4)C3)c2c1Cl.O=C(O)C(F)(F)F [700,669] | – | – | – | > 64 | > 64
CCc1[nH]c2nc(Sc3cnc4nccnc4c3)nc(N3CC4CNC4C3)c2c1Cl.O=C(O)C(F)(F)F (stereo not shown) [700,548, 7-(4-(3,6-diazabicyclo[3.2.0]heptan-3-yl)-5-chloro-6-ethyl-7H-pyrrolo[2,3-d]pyrimidin-2-ylthio)pyrido[3,2-b]pyrazine] | – | – | – | ≤ 0.5 | 2

The next lines start with results.

MIC EC8 [1] [µg/mL] | MIC, SA ([2]; S. aureus (SA), in µg/mL) | MIC Spn52 [3, 4] | Compound | MIC, SA ([2]; S. aureus) [µg/mL] | MIC Spn52 ([3]; S. pneumoniae) [µg/mL]
> 64 | <=0.5 | <=0.5 | CCc1[nH]c2nc(Oc3cncc(OC)c3)nc(Oc3cccc(C#N)c3)c2c1Br [700,982] | – | –
> 64 | >64 | >64 | CCc1[nH]c2nc(Oc3ccc4nccnc4c3)nc(Oc3ccc(C#N)cc3Cl)c2c1Cl [701,286] | – | –
> 64 | <=0.5 | <=0.5 | CCc1[nH]c2nc(Oc3cnc4c(c3)ncn4C)nc(Oc3cncc(C#N)c3)c2c1Br [700,996] | – | –
16 (≈ 37.6 µM) | <=0.5 | <=0.5 | CCc1[nH]c2nc(Sc3ccc4nccnc4c3)nc(N3CC[C@@H](N)C3)c2c1Cl [701,005] | – | –
> 64 | 4 | 2 | CCc1[nH]c2nc(Sc3cnc4cccnc4c3)nc(N3C[C@H](N)[C@H](C(=O)NCc4cccnc4)C3)c2c1Cl [701,020] | – | –
– | 2 | 32 | CCc1[nH]c2nc(Sc3cnc4cccnc4c3)nc(N3C[C@@H](N)[C@@H](C(=O)OC)C3)c2c1Cl [700,873] | – | –
